Assay results reported in patent publication US11851391B2, “Antifungal compounds and methods of forming the same” (University of Kentucky Research Foundation, priority 2018, dated 2023).
≈ marks a conversion by molar mass, not a printed value. Where two headings read alike, the source gives them in different places.

Columns and labels:
[1] = system: Aspergillus terreus ATCC MYA-3633 (strain M); test: MIC determination against filamentous fungi (CLSI M38-A2); assay type: cell-based; settings: Aspergillus terreus, 48 h, MIC-0, 48 h at 35° C., read-out: MIC
Experimental: (§1) The activity of N,N′-diaryl-bishydrazones 7-22 was tested against a panel of seven strains of C. albicans: ATCC 10231(R) (A), ATCC 64124(R) (B), ATCC MYA-2876(S) (C), ATCC 90819(R) (D), ATCC MYA-2310(S) (E), ATCC MYA-1237(R) (F), and ATCC MYA-1003(R) (G). The activity of these bishydrazones 7-22 was also explored against a panel of three non-albicans Candida strains: C. glabrata ATCC 2001 (H), C. krusei ATCC 6258 (I), and C. parapsilosis ATCC 22019 (J). Finally, the activity of these bishydrazones 7-22 was explored against three Aspergillus strains: A. flavus ATCC MYA-3631 (K), A. nidulans ATCC 38163 (L), and A. terreus ATCC MYA-3633 (M).
(§2) Candida albicans ATCC 10231 (A), C. albicans ATCC 64124 (B), and C. albicans ATCC MYA-2876 (C) were kindly provided by Dr. Jon Y. Takemoto (Utah State University, Logan, UT, USA). C. albicans ATCC 90819 (D), C. albicans ATCC MYA-2310 (E), C. albicans ATCC MYA-1237 (F), C. albicans ATCC MYA-1003 (G), Candida glabrata ATCC 2001 (H), Candida krusei ATCC 6258 (I), Candida parapsilosis ATCC 22019 (J), Aspergillus flavus ATCC MYA-3631 (K), and Aspergillus terreus ATCC MYA-3633 (M) were obtained from the American Type Culture Collection (ATCC; Manassas, VA, USA). Aspergillus nidulans ATCC 38163 (L) was received from Dr. Jon S. Thorson (University of Kentucky, Lexington, KY, USA). Filamentous fungi and yeasts were cultivated at 35° C. in RPMI 1640 medium (with 1-glutamine, without sodium biocarbonate, Sigma-Aldrich, St. Louis, MO) buffered to a pH of 7.0 with 0.165 M morpholinepropanesulfonic acid (MOPS) buffer (Sigma-Aldrich).
(§3) Similarly, the MIC values of compounds 7a-24c, as well as that of the two control drugs against filamentous fungi (strains K-M) were determined as previously described in CLSI document M38-A2. Spores were harvested from sporulating cultures growing on potato dextrose agar (PDA) by filtration through sterile glass wool and enumerated by using a hemocytometer to obtain the desired inoculum size. […] Spore suspensions were added to the wells to afford a final concentration of 5×10^5 CFU/mL. The plates were incubated at 35° C. for 48 h. The MIC values of compounds 7a-24c and CAS against filamentous fungi were based on the complete inhibition of growth when compared to the growth control (MIC-0). […] Each test was performed in triplicate.

[2] = system: Aspergillus nidulans ATCC 38163 (strain L); test: as above; assay type: cell-based; settings: Aspergillus nidulans, ATCC38163, 48 h, MIC-0, 48 h at 35° C., read-out: MIC
Experimental: as §1, §2, §3

[3] = system: Aspergillus flavus ATCC MYA-3631 (strain K); test: as above; assay type: cell-based; settings: Aspergillus flavus, 48 h, MIC-0, 48 h at 35° C., read-out: MIC
Experimental: as §1, §2, §3

[4] = system: C. albicans ATCC MYA-2876(S) (strain C); test: MIC determination, in vitro antifungal assay (CLSI M27-A3); assay type: cell-based, Candida albicans; settings: Candida albicans, 48 h, MIC-0, 48 h at 35° C., read-out: MIC
Experimental: as §1, §2
(§4) A single colony of freshly prepared yeast cells was used to inoculate 5 mL of yeast extract peptone dextrose (YPD) broth prior to incubation overnight with shaking at 200 rpm at 35° C. From the actively growing yeast culture, 100 μL were then transferred to 900 μL of sterile ddH2O and re-adjusted to achieve OD600 of 0.12 (˜1×10^6 CFU/mL). The cell suspension was further diluted to achieve 2-4×10^3 CFU/mL in RPMI 1640 medium. […] The final concentration of DMSO was ensured to be <1.25% in all experiments.

[5] = system: C. albicans ATCC MYA-1003(R) (strain G); test: as above; assay type: cell-based, Candida albicans; settings: Candida albicans, 48 h, MIC-0, 48 h at 35° C., read-out: MIC
Experimental: as §1, §2, §4

[6] = system: Candida krusei ATCC 6258 (strain I); test: as above; assay type: cell-based; settings: Pichia kudriavzevii, ATCC6258, 48 h, MIC-0, 48 h at 35° C., read-out: MIC
Experimental: as §1, §2, §4

[7] = system: Candida glabrata ATCC 2001 (strain H); test: as above; assay type: cell-based; settings: Nakaseomyces glabratus, ATCC2001, 48 h, MIC-0, 48 h at 35° C., read-out: MIC
Experimental: as §1, §2, §4

[8] = system: C. albicans ATCC 64124(R) (strain B); test: as above; assay type: cell-based, Candida albicans; settings: strain B, MIC-0, 48 h at 35° C.
Experimental: as §1, §2
as §4, with “The MIC values of compounds 7a-24c against yeast cells (strains A-J) were determined in 96-well plates as described in the CLSI document M27-A3 with minor modifications. A” for “A”, “experiments. The MIC values for compounds 7a-24c and CAS were defined as the minimum drug concentration that yielded complete inhibition (also known as MIC-0).” for “experiments.”

[9] = system: C. albicans ATCC MYA-2310(S) (strain E); test: as above; assay type: cell-based, Candida albicans; settings: Candida albicans, 48 h, MIC-0, 48 h at 35° C., read-out: MIC
Experimental: as §1, §2
as §4, with “The MIC values of compounds 7a-24c against yeast cells (strains A-J) were determined in 96-well plates as described in the CLSI document M27-A3 with minor modifications. A” for “A”, “experiments. The MIC values for compounds 7a-24c and CAS were defined as the minimum drug concentration that yielded complete inhibition (also known as MIC-0).” for “experiments.”

[10] = system: C. albicans ATCC 90819(R) (strain D); test: as above; assay type: cell-based, Candida albicans; settings: Candida albicans, ATCC90819, 48 h, MIC-0, 48 h at 35° C., read-out: MIC
Experimental: as §1, §2
as §4, with “The MIC values of compounds 7a-24c against yeast cells (strains A-J) were determined in 96-well plates as described in the CLSI document M27-A3 with minor modifications. A” for “A”, “experiments. The MIC values for compounds 7a-24c and CAS were defined as the minimum drug concentration that yielded complete inhibition (also known as MIC-0).” for “experiments.”

[11] = system: C. albicans ATCC MYA-1237(R) (strain F); test: as above; assay type: cell-based, Candida albicans; settings: Candida albicans, 48 h, MIC-0, 48 h at 35° C., read-out: MIC
Experimental: as §1, §2
as §4, with “The MIC values of compounds 7a-24c against yeast cells (strains A-J) were determined in 96-well plates as described in the CLSI document M27-A3 with minor modifications. A” for “A”, “experiments. The MIC values for compounds 7a-24c and CAS were defined as the minimum drug concentration that yielded complete inhibition (also known as MIC-0).” for “experiments.”

[12] = system: Candida albicans ATCC 10231(R) (strain A); test: as above; assay type: cell-based; settings: MIC-0 (no visible growth), 48 h at 35° C.
Experimental: as §1, §2
as §4, with “The MIC values of compounds 7a-24c against yeast cells (strains A-J) were determined in 96-well plates as described in the CLSI document M27-A3 with minor modifications. A” for “A”, “experiments. The MIC values for compounds 7a-24c and CAS were defined as the minimum drug concentration that yielded complete inhibition (also known as MIC-0).” for “experiments.”

[13] = system: Candida parapsilosis ATCC 22019 (strain J); test: as above; assay type: cell-based; settings: Lodderomyces parapsilosis, ATCC22019, 48 h, strain J; MIC-0; 48 h at 35° C.; read-out: MIC
Experimental: as §1, §2
as §4, with “The MIC values of compounds 7a-24c against yeast cells (strains A-J) were determined in 96-well plates as described in the CLSI document M27-A3 with minor modifications. A” for “A”, “experiments. The MIC values for compounds 7a-24c and CAS were defined as the minimum drug concentration that yielded complete inhibition (also known as MIC-0).” for “experiments.”

[14] = system: various yeast strains and filamentous fungi (strains A-M); test: Antifungal activity over the whole panel (summary of MIC data); assay type: cell-based, Candida and Aspergillus strains; settings: for antifungal activity (in words): over the fungal strains tested, based on MIC data of Table 1; for MIC: against all fungal strains tested, with named exceptions, read-out: antifungal activity class based on MIC values
Experimental: as §1
as §4, with “The MIC values of compounds 7a-24c against yeast cells (strains A-J) were determined in 96-well plates as described in the CLSI document M27-A3 with minor modifications. A” for “A”, “experiments. The MIC values for compounds 7a-24c and CAS were defined as the minimum drug concentration that yielded complete inhibition (also known as MIC-0).” for “experiments.”
as §3

[15] = Candida albicans, ATCC64124, 48 h, read-out: MIC
[16] = Candida albicans, ATCC10231, 48 h, read-out: MIC

Row | SMILES | MIC [1] | MIC [2] | MIC [3] | MIC [4] | MIC [5] | MIC [6] | MIC [7] | MIC [8, 15] | MIC [9] | MIC [10] | MIC [11] | MIC [12, 16] | MIC [13] | antifungal activity (in words) [14] | MIC [12] | MIC [14] | MIC [8]
1 | Brc1ccc(N/N=C/c2ccc(-c3ccc(/C=N/Nc4ccc(Br)cc4)cc3)cc2)cc1 [Compound 19b] | > 31.3 µg/mL | > 31.3 µg/mL | > 31.3 µg/mL | > 31.3 µg/mL | > 31.3 µg/mL | > 31.3 µg/mL | > 31.3 µg/mL | > 31.3 µg/mL | > 31.3 µg/mL | > 31.3 µg/mL | > 31.3 µg/mL | > 31.3 µg/mL | 31.3 µg/mL (≈ 57.1 µM) | inactive | – | – | –
2 | Fc1ccc(N/N=C/c2ccc(-c3ccc(/C=N/Nc4ccc(F)cc4F)cc3)cc2)c(F)c1 [Compound 20b] | > 31.3 µg/mL | > 31.3 µg/mL | > 31.3 µg/mL | > 31.3 µg/mL | > 31.3 µg/mL | > 31.3 µg/mL | > 31.3 µg/mL | > 31.3 µg/mL | > 31.3 µg/mL | 31.3 µg/mL (≈ 67.7 µM) | > 31.3 µg/mL | 7.8 µg/mL (≈ 16.9 µM) | > 31.3 µg/mL | – | 7.8 µg/mL (≈ 16.9 µM) | ≥ 31.3 µg/mL | –
3 | Fc1cc(F)cc(N/N=C/c2ccc(-c3cccc(/C=N/Nc4cc(F)cc(F)c4)c3)cc2)c1 [Compound 22a] | > 31.3 µg/mL | > 31.3 µg/mL | > 31.3 µg/mL | 31.3 µg/mL (≈ 67.7 µM) | 31.3 µg/mL (≈ 67.7 µM) | > 31.3 µg/mL | > 31.3 µg/mL | 15.6 µg/mL (≈ 33.7 µM) | > 31.3 µg/mL | > 31.3 µg/mL | 31.3 µg/mL (≈ 67.7 µM) | 3.9 µg/mL (≈ 8.43 µM) | > 31.3 µg/mL | no activity | 3.9 µg/mL (≈ 8.43 µM) | – | 15.6 µg/mL (≈ 33.7 µM)
4 | Fc1cc(F)cc(N/N=C/c2ccc(-c3ccc(/C=N/Nc4cc(F)cc(F)c4)cc3)cc2)c1 [Compound 22b] | > 31.3 µg/mL | > 31.3 µg/mL | > 31.3 µg/mL | > 31.3 µg/mL | > 31.3 µg/mL | > 31.3 µg/mL | > 31.3 µg/mL | > 31.3 µg/mL | > 31.3 µg/mL | > 31.3 µg/mL | > 31.3 µg/mL | 15.6 µg/mL (≈ 33.7 µM) | > 31.3 µg/mL | no activity | 15.6 µg/mL (≈ 33.7 µM) | ≥ 31.3 µg/mL | –
